Results as given in the NIST ThermoML archive (doi:10.1021/je050540h).

Experiment: xn = mol fraction of the nth substance listed
Conditions: Liquid; for speed of sound: 7 kPa; for mass density / viscosity: 101 kPa

CCCC(C)O (stereo not drawn) [pentan-2-ol] + C1CCCCC1
Conditions | mass density, 293.15 K [kg/m3] | mass density, 298.15 K [kg/m3] | mass density, 303.15 K [kg/m3] | speed of sound, 293.15 K [m/s] | speed of sound, 298.15 K [m/s] | speed of sound, 303.15 K [m/s] | viscosity, 293.15 K [mPa·s] | viscosity, 298.15 K [mPa·s] | viscosity, 303.15 K [mPa·s]
x2 = 0 | 809.04 | 805.01 | 800.9 | 1250 | 1232 | 1214 | 4.001 | 3.273 | 2.774
x2 = 0.0495 | 806.87 | 802.77 | 798.6 | 1247 | 1229 | 1210 | 3.606 | 2.969 | 2.474
x2 = 0.1002 | 804.68 | 800.52 | 796.28 | 1244 | 1225 | 1206 | 3.195 | 2.658 | 2.237
x2 = 0.2019 | 800.29 | 796 | 791.65 | 1238 | 1218 | 1199 | 2.516 | 2.125 | 1.82
x2 = 0.3067 | 796.06 | 791.67 | 787.23 | 1234 | 1213 | 1193 | 1.922 | 1.659 | 1.441
x2 = 0.4011 | 792.42 | 787.98 | 783.48 | 1231 | 1210 | 1189 | 1.583 | 1.385 | 1.233
x2 = 0.5085 | 788.62 | 784.11 | 779.56 | 1230 | 1209 | 1187 | 1.317 | 1.178 | 1.058
x2 = 0.6066 | 785.63 | 781.09 | 776.49 | 1232 | 1211 | 1189 | 1.17 | 1.056 | 0.957
x2 = 0.7118 | 782.94 | 778.32 | 773.65 | 1239 | 1216 | 1194 | 1.067 | 0.97 | 0.885
x2 = 0.8096 | 780.86 | 776.18 | 771.44 | 1247 | 1224 | 1201 | 1.045 | 0.952 | 0.871
x2 = 0.9049 | 779.29 | 774.54 | 769.74 | 1259 | 1235 | 1211 | 1.009 | 0.924 | 0.845
x2 = 0.9557 | 778.62 | 773.86 | 769.07 | 1267 | 1243 | 1219 | 0.997 | 0.912 | 0.837
